Laboratory results taken from ChEMBL document CHEMBL1124853, “Synthesis and antiallergy activity of N-[2-(dimethylamino)ethyl]-4-aryl-1-piperazinecarboxamide derivatives” (1990).

Assays:
Rattus norvegicus [1] = assay: Oral antiallergic activity in rat passive foot anaphylaxis (PFA) assay as percent change in volume of foot edema at a dose 31.6 mg/kg compared to -50% of aminophylline at 100 mg/kg; assay type: functional
Rattus norvegicus [2] = assay: Oral antiallergic activity in rat passive foot anaphylaxis (PFA) assay as percent change in volume of foot edema at a dose 31.6 mg/kg compared to -78% of aminophylline at 100 mg/kg; assay type: functional
Rattus norvegicus [3] = assay: Oral antiallergic activity in rat passive foot anaphylaxis (PFA) assay as percent change in volume of foot edema at a dose 31.6 mg/kg compared to -63% of aminophylline at 100 mg/kg; assay type: functional
Rattus norvegicus [4] = assay: Oral antiallergic activity in rat passive foot anaphylaxis (PFA) assay as percent change in volume of foot edema at a dose 31.6 mg/kg compared to -65% of aminophylline at 100 mg/kg; assay type: functional
Rattus norvegicus [5] = assay: Oral antiallergic activity in rat passive foot anaphylaxis (PFA) assay as percent change in volume of foot edema at a dose 31.6 mg/kg compared to -74% of aminophylline at 100 mg/kg; assay type: functional
Rattus norvegicus [6] = assay: Oral antiallergic activity in rat passive foot anaphylaxis (PFA) assay as percent change in volume of foot edema at a dose 31.6 mg/kg compared to -66% of aminophylline at 100 mg/kg; assay type: functional
Rattus norvegicus [7] = assay: Oral antiallergic activity in rat passive foot anaphylaxis (PFA) assay as percent change in volume of foot edema at a dose 31.6 mg/kg compared to -76% of aminophylline at 100 mg/kg; assay type: functional
Rattus norvegicus [8] = assay: Oral antiallergic activity in rat passive foot anaphylaxis (PFA) assay as percent change in volume of foot edema at a dose 31.6 mg/kg compared to -61% of aminophylline at 100 mg/kg; assay type: functional
Rattus norvegicus [9] = assay: Oral antiallergic activity in rat passive foot anaphylaxis (PFA) assay as percent change in volume of foot edema at a dose 31.6 mg/kg compared to -71% of aminophylline at 100 mg/kg; assay type: functional
Rattus norvegicus [10] = assay: Oral antiallergic activity in rat passive foot anaphylaxis (PFA) assay as percent change in volume of foot edema at a dose 31.6 mg/kg compared to -69% of aminophylline at 100 mg/kg; assay type: functional
Rattus norvegicus [11] = assay: Oral antiallergic activity in rat passive foot anaphylaxis (PFA) assay as percent change in volume of foot edema at a dose 31.6 mg/kg compared to -81% of aminophylline at 100 mg/kg; assay type: functional
Rattus norvegicus [12] = assay: Oral antiallergic activity in rat passive foot anaphylaxis (PFA) assay as percent change in volume of foot edema at a dose 31.6 mg/kg compared to -68% of aminophylline at 100 mg/kg; assay type: functional
Rattus norvegicus [13] = assay: Oral antiallergic activity in rat passive foot anaphylaxis (PFA) assay as percent change in volume of foot edema at a dose 31.6 mg/kg compared to -79% of aminophylline at 100 mg/kg; assay type: functional
Rattus norvegicus [14] = assay: Oral antiallergic activity in rat passive foot anaphylaxis (PFA) assay as percent change in volume of foot edema at a dose 31.6 mg/kg compared to -80% of aminophylline at 100 mg/kg; assay type: functional
Rattus norvegicus [15] = assay: Oral antiallergic activity in rat passive foot anaphylaxis (PFA) assay as percent change in volume of foot edema at a dose 31.6 mg/kg compared to -73% of aminophylline at 100 mg/kg; assay type: functional
Rattus norvegicus [16] = assay: Oral antiallergic activity in rat passive foot anaphylaxis (PFA) assay as percent change in volume of foot edema at a dose 31.6 mg/kg compared to -77% of aminophylline at 100 mg/kg; assay type: functional
Rattus norvegicus [17] = assay: Oral antiallergic activity in rat passive foot anaphylaxis (PFA) assay as percent change in volume of foot edema at a dose 31.6 mg/kg compared to -58% of aminophylline at 100 mg/kg; assay type: functional
Rattus norvegicus [18] = assay: Oral antiallergic activity in rat passive foot anaphylaxis (PFA) assay as percent change in volume of foot edema at a dose 31.6 mg/kg compared to -60% of aminophylline at 100 mg/kg; assay type: functional
Rattus norvegicus [19] = assay: Oral antiallergic activity in rat passive foot anaphylaxis (PFA) assay as percent change in volume of foot edema at a dose 10 mg/kg compared to -69% of aminophylline at 100 mg/kg; assay type: functional
Rattus norvegicus [20] = assay: Oral antiallergic activity in rat passive foot anaphylaxis (PFA) assay as percent change in volume of foot edema at a dose 31.6 mg/kg compared to -64% of aminophylline at 100 mg/kg; assay type: functional
Rattus norvegicus [21] = assay: Oral antiallergic activity in rat passive foot anaphylaxis (PFA) assay as percent change in volume of foot edema at a dose 10 mg/kg compared to -62% of aminophylline at 100 mg/kg; assay type: functional
Rattus norvegicus [22] = assay: Oral antiallergic activity in rat passive foot anaphylaxis (PFA) assay as percent change in volume of foot edema at a dose 31.6 mg/kg compared to -62% of aminophylline at 100 mg/kg; assay type: functional
Rattus norvegicus [23] = assay: Oral antiallergic activity in rat passive foot anaphylaxis (PFA) assay as percent change in volume of foot edema at a dose 31.6 mg/kg compared to -90% of aminophylline at 100 mg/kg; assay type: functional
Cavia porcellus [24] = assay: Oral antiallergic activity in the Guinea Pig Anaphylaxis (GPA) at the dose of 10 mg/kg; 4 guinea pigs were challenged with the antigen
Rattus norvegicus [25] = assay: Oral antiallergic activity in rat passive foot anaphylaxis (PFA) assay as percent change in volume of foot edema at a dose 10 mg/kg compared to -76% of aminophylline at 100 mg/kg; assay type: functional
Rattus norvegicus [26] = assay: Oral antiallergic activity in rat passive foot anaphylaxis (PFA) assay as percent change in volume of foot edema at a dose 31.6 mg/kg compared to -67% of aminophylline at 100 mg/kg; assay type: functional
Rattus norvegicus [27] = assay: Oral antiallergic activity in rat passive foot anaphylaxis (PFA) assay as percent change in volume of foot edema at a dose 3.16 mg/kg compared to -84% of aminophylline at 100 mg/kg
Rattus norvegicus [28] = assay: Oral antiallergic activity in rat passive foot anaphylaxis (PFA) assay as percent change in volume of foot edema at a dose 10 mg/kg compared to -77% of aminophylline at 100 mg/kg; assay type: functional
Cavia porcellus [29] = assay: Oral antiallergic activity in the Guinea Pig Anaphylaxis (GPA) at the dose of 31.6 mg/kg; 4 guinea pigs were challenged with the antigen
Cavia porcellus [30] = assay: Oral antiallergic activity in the Guinea Pig Anaphylaxis (GPA) at the dose of 31.6 mg/kg; 6 guinea pigs were challenged with the antigen; assay type: functional
Cavia porcellus [31] = assay: Oral antiallergic activity in the Guinea Pig Anaphylaxis (GPA) at the dose of 200 mg/kg; 3 guinea pigs were challenged with the antigen; assay type: functional

CN(CCNC(=O)N1CCN(c2ccccc2)CC1)Cc1ccccc1
Change (Rattus norvegicus [1]): -35%

CCOC(=O)c1ccc(N2CCN(C(=O)NCCN(C)C)CC2)cc1
Change (Rattus norvegicus [2]): -5%

CN(CCNC(=O)N1CCN(c2ccccc2)CC1)c1ccccc1
Change (Rattus norvegicus [3]): -41%

CN(C)CCNC(=O)N1CCN(c2ccc(Cl)c(Cl)c2)CC1
Change (Rattus norvegicus [1]): -17%

CN(C)CCN(C)C(=O)N1CCN(c2ccccc2)CC1
Change (Rattus norvegicus [4]): -38%

O=C(NCCN1CCOCC1)N1CCN(c2ccccc2)CC1
Change (Rattus norvegicus [5]): 10%

CN(C)CCNC(=O)N1CCN(C(c2ccccc2)c2ccccc2)CC1
Change (Rattus norvegicus [6]): -30%

O=C(NCCN1CCCCCC1)N1CCN(c2ccccc2)CC1
Change (Rattus norvegicus [7]): -47%

CN(C)CCNC(=O)N1CCN(c2ccc(Br)cc2)CC1
Change (Rattus norvegicus [8]): -31%

CN(C)CCNC(=O)N1CCN(C(=O)c2ccccc2)CC1
Change (Rattus norvegicus [9]): -4%

O=C(NCCCN1CCOCC1)N1CCN(c2ccccc2)CC1
Change (Rattus norvegicus [10]): -28%

CCN1CCCC(NC(=O)N2CCN(c3ccccc3)CC2)C1 (configuration not stated)
Change (Rattus norvegicus [11]): -58%

O=C(NCCN1CCCC1)N1CCN(c2ccccc2)CC1
Change (Rattus norvegicus [12]): -45%

CN(C)CCNC(=O)N(C)CCN(C)c1ccccc1
Change (Rattus norvegicus [13]): -23%

O=C(N1CCN(c2ccccc2)CC1)N1CCN(c2ccccc2)CC1
Change (Rattus norvegicus [10]): -10%

COc1ccc(N2CCN(C(=O)NCCN(C)C)CC2)cc1OC
Change (Rattus norvegicus [3]): -16%

CN(C)CCNC(=O)N1CCN(c2ccc(C#N)cc2)CC1
Change (Rattus norvegicus [14]): -31%

CN1CCN(C(=O)N2CCN(c3ccccc3)CC2)CC1
Change (Rattus norvegicus [12]): -7%

CN(C)CCNC(=O)N1CCN(Cc2ccccc2)CC1
Change (Rattus norvegicus [15]): -10%

CC(=O)Nc1ccc(N2CCN(C(=O)NCCN(C)C)CC2)cc1
Change (Rattus norvegicus [5]): 5%

CN(C)CCNC(=O)N1CCN(c2ccc(N(C)C)cc2)CC1
Change (Rattus norvegicus [16]): -29%

CN(C)CCNC(=O)N1CCN(c2ccc([N+](=O)[O-])cc2)CC1
Change (Rattus norvegicus [17]): -26%

CCN(CC)CCNC(=O)N1CCN(c2ccccc2)CC1
Change (Rattus norvegicus [18]): -47%

CN(C)CCNC(=O)N1CCN(c2cccc(C(F)(F)F)c2)CC1
Change (Rattus norvegicus [8]): -18%

CN(C)CCNC(=O)N1CCN(c2ccc(N)cc2)CC1
Change (Rattus norvegicus [15]): -22%

CN(C)CCNC(=O)N1CCN(c2ccccc2F)CC1
Change (Rattus norvegicus [12]): -37%

CN(C)CCNC(=O)N1CCN(c2ccccn2)CC1
Change (Rattus norvegicus [4]): -54% | Change (Rattus norvegicus [19]): -13%

CN(C)CCNC(=O)N1CCN(c2cccc(F)c2)CC1
Change (Rattus norvegicus [20]): -31%

O=C(NCCN1CCCCC1)N1CCN(c2ccccc2)CC1
Change (Rattus norvegicus [12]): -49%

O=C(NCCc1ccccn1)N1CCN(c2ccccc2)CC1
Change (Rattus norvegicus [5]): -3%

COc1ccccc1N1CCN(C(=O)NCCN(C)C)CC1
Change (Rattus norvegicus [5]): -21%

NC(=O)N1CCN(c2ccccc2)CC1
Change (Rattus norvegicus [5]): 10%

COc1cccc(N2CCN(C(=O)NCCN(C)C)CC2)c1
Change (Rattus norvegicus [21]): -36% | Change (Rattus norvegicus [4]): -67%

CN1CCN(CCCNC(=O)N2CCN(c3ccccc3)CC2)CC1
Change (Rattus norvegicus [11]): -23%

CN1CCN(CCNC(=O)N2CCN(c3ccccc3)CC2)CC1
Change (Rattus norvegicus [3]): -7%

COc1cc(N2CCN(C(=O)NCCN(C)C)CC2)cc(OC)c1OC
Change (Rattus norvegicus [22]): 9%

CC(=O)c1ccc(N2CCN(C(=O)NCCN(C)C)CC2)cc1
Change (Rattus norvegicus [9]): -25%

CN(C)CCNC(=O)N1CCN(c2ccccc2Cl)CC1
Change (Rattus norvegicus [4]): -53% | Change (Rattus norvegicus [19]): -16%

CN(C)CCNC(=O)N1CCN(c2ccccc2)CC1
Change (Rattus norvegicus [23]): -68% | Change (Rattus norvegicus [19]): -22%

CN(C)C(=O)N1CCN(c2ccccc2)CC1
Change (Rattus norvegicus [9]): -24%

CN(C)CCNC(=O)N1CCN(c2ccc(C(N)=O)cc2)CC1
Change (Rattus norvegicus [14]): 0%

CN(C)CCNC(=O)N1CCN(c2ccc(F)cc2)CC1
No. of guinea pigs protected (Cavia porcellus [24]): 1 | Change (Rattus norvegicus [25]): -63% | Change (Rattus norvegicus [26]): -87% | Change (Rattus norvegicus [27]): -35%

CN(C)CCNC(=O)N1CCN(c2cccc(Cl)c2)CC1
Change (Rattus norvegicus [26]): -78% | Change (Rattus norvegicus [28]): -32%

COc1ccc(N2CCN(C(=O)NCCN(C)C)CC2)cc1
Change (Rattus norvegicus [4]): -49% | Change (Rattus norvegicus [19]): -29%

Cc1ccc(N2CCN(C(=O)NCCN(C)C)CC2)cc1
Change (Rattus norvegicus [4]): -46%

CN(C)CCCNC(=O)N1CCN(c2ccccc2)CC1
Change (Rattus norvegicus [5]): -13%

CN(C)CCNC(=O)N1CCN(c2ccc(Cl)cc2)CC1
Change (Rattus norvegicus [22]): 27% | Change (Rattus norvegicus [21]): -48% | Change (Rattus norvegicus [4]): -61% | No. of guinea pigs protected (Cavia porcellus [29]): 0

Cn1c(=O)c2[nH]cnc2n(C)c1=O.Cn1c(=O)c2[nH]cnc2n(C)c1=O.NCCN [AMINOPHYLLINE]
No. of guinea pigs protected (Cavia porcellus [30]): 4

CCN(CC)C(=O)N1CCN(C)CC1 [DIETHYLCARBAMAZINE]
No. of guinea pigs protected (Cavia porcellus [31]): 0

CN(C)CCOC(c1ccccc1)c1ccccc1 [DIPHENHYDRAMINE]
No. of guinea pigs protected (Cavia porcellus [29]): 1
